# Reference: patent US20170135990A1, “PHARMACEUTICAL COMPOSITIONS COMPRISING A 5,5-FUSED HETEROARYLENE FLAVIVIRIDAE INHIBITOR AND THEIR USE FOR TREATING OR PREVENTING FLAVIVIRIDAE INFECTION” (IDENIX PHARMACEUTICALS LLC, priority 2014, published 2017)
# Key:
# [1] = aqueous solubility and permeability, BCS classification; assay type: physicochemical
# Description: Compound A1 has a low aqueous solubility and low permeability and, thus, is classified as a BCS class IV compound, which presents a significant formulation challenge. Cook et al., AAPS J. 2008, 10, 306-310.
# [2] = pharmacokinetic study in the monkey, PEG200 solution formulation; assay type: in vivo; settings: 500 mg/kg, fed conditions
# Procedure: Initial pharmacokinetic studies on compound A1 were performed both in vitro and in the monkey using a solution formulation containing PEG200. Compound A1 in the PEG200 solution was determined to have bioavailability of 0.1% F when administered at a dose of 500 mg/kg to the monkey under fed conditions.
compound,measurement,setting,value
"COC(=O)N[C@H](C(=O)N1CCC[C@H]1c1nc2cc(-c3csc4c(-c5ccc(-c6cnc([C@@H]7CCCN7C(=O)[C@H](NC(=O)OC)c7ccccc7)[nH]6)cc5)csc34)ccc2[nH]1)C(C)C [compound A1, methyl N-[(1R)-2-[(2S)-2-[5-[4-[6-[2-[(2S)-1-[(2S)-2-(methoxycarbonylamino)-3-methyl-butanoyl]pyrrolidin-2-yl]-3H-benzimidazol-5-yl]thieno[3,2-b]thiophen-3-yl]phenyl]-1H-imidazol-2-yl]pyrrolidin-1-yl]-2-oxo-1-phenyl-ethyl]carbamate]",aqueous solubility,[1],low
same,bioavailability,[2],0.1 % F
